Results reported in patent publication US12727600B2, “Staurosporine⋅emamectin benzoate suspending agent and preparation method and application thereof” (PLANT PROTECTION RESEARCH INSTITUTE OF GUANGDONG ACADEMY OF …, priority 2020, dated 2026).
Where two headings read alike, the source gives them in different places.

Test system: second instar larvae of Spodoptera exigua
Assay: Indoor toxicity by Potter spray method; co-toxicity coefficient method of Sun Y. P.
Type: in vivo
Conditions: median lethal concentration
Experimental: The method for determining the indoor toxicity of the pesticides involved in the present invention to the second instar larvae of Spodoptera exigua is as follows:
The test method is the Potter spray method: a Potter spray tower is used to spray the vegetable leaves on both sides with 1 mL of the amount of the pesticides treating the leaf on each side, and the sedimentation is performed for 30 seconds. There are 3 replicates for each treatment for 30 larvae (2nd instar larvae of Spodoptera exigua), and a treatment with the clean water is used as the control. The petri dish after sprayed is placed in a constant-temperature incubator (temperature being 25° C., relative humidity being 85%). The death of the testing pests is investigated and recorded after treatment for 24, 48, and 72 hours. During the treatment, the petri dish is kept moist, and fresh Cantonese cabbage leaves are added timely as pest's food.
The formula (1) is used to calculate the mortality of pests, the Abbott formula is used to calculate the corrected mortality, and EXCEL is used to analyze the virulence regression results. Formula (2) is the calculation formula of Abbott. Mortality (%)=Number of dead insects/Number of testing worms before experiment*100 (1) […]

Which LC50 (Spodoptera exigua, mass ratio Staurosporine:Emamectin benzoate, read-out: LC50) does the source give for CN[C@@H]1C[C@H]2O[C@@](C)([C@@H]1OC)n1c3ccccc3c3c4c(c5c6ccccc6n2c5c31)C(=O)NC4 [10:0, Staurosporine] here?
Its LC50 is 40.3 µg/mL.

For Emamectin benzoate [0:10], which LC50 is on record?
The LC50 was 0.14 µg/mL.
